Reference: PubChem BioAssay AID330 (DTP/NCI, 2004)
Several values for one entry are separate records, joined by “and”; a condition that tells them apart may be missing. Identical values can stand only once. Toxic doses and inconclusive results are not listed.

Tested on: P388 leukemia ip, CD2F1 mice, survival T/C
Assay: NCI In Vivo Anticancer Drug Screen. Data for tumor model P388 Leukemia (intraperitoneal) in CD2F1 (CDF1) mice
Settings: endpoint: median survival time, higher = longer survival
How it was run: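 Mice carrying the transplanted tumor received test compound or vehicle. Survival was recorded in each group, and the value is the treated-group measurement divided by that of the vehicle-treated control group.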

Q: Which T/C (dose: 0.02 mg/kg/injection, schedule: Q04DX003 (ip), vehicle: saline) does the source give for `O=C1c2c(O)ccc(O)c2C(=O)c2c(NCCNCCO)ccc(NCCNCCO)c21` here?
A: 120 % of control

Q: What about the T/C (dose: 0.06 mg/kg/injection, schedule: Q01DX009 (ip), vehicle: saline) of the same compound?
A: 175 % of control and 208 % of control

Q: And the T/C (dose: 0.06 mg/kg/injection, schedule: Q04DX003 (ip), vehicle: saline)?
A: 218 % of control

Q: And the T/C (dose: 0.12 mg/kg/injection, schedule: Q01DX009 (ip), vehicle: acid diluted with saline)?
A: 179 % of control and 190 % of control

Q: What about the T/C (dose: 0.12 mg/kg/injection, schedule: Q01DX009 (ip), vehicle: other) of the same compound?
A: 165 % of control

Q: And the T/C (dose: 0.12 mg/kg/injection, schedule: Q01DX009 (ip), vehicle: saline)?
A: 200 % of control and 220 % of control

Q: What about the T/C (dose: 0.12 mg/kg/injection, schedule: Q04DX003 (ip), vehicle: saline) of the same compound?
A: 160 % of control

Q: What about the T/C (dose: 0.13 mg/kg/injection, schedule: Q01DX009 (ip), vehicle: acid diluted with saline) of the same compound?
A: 150 % of control and 176 % of control

Q: What about the T/C (dose: 0.2 mg/kg/injection, schedule: Q01DX009 (ip), vehicle: acid diluted with saline) of the same compound?
A: 250 % of control

Q: What about the T/C (dose: 0.2 mg/kg/injection, schedule: Q01DX009 (ip), vehicle: water) of the same compound?
A: 172 % of control

Q: And the T/C (dose: 0.25 mg/kg/injection, schedule: Q01DX005 (ip), vehicle: acid diluted with saline)?
A: 270 % of control

Q: What about the T/C (dose: 0.25 mg/kg/injection, schedule: Q04DX003 (ip), vehicle: saline) of the same compound?
A: 182 % of control

Q: What about the T/C (dose: 0.32 mg/kg/injection, schedule: Q01DX009 (ip), vehicle: acid diluted with saline) of the same compound?
A: 225 % of control

Q: And the T/C (dose: 0.32 mg/kg/injection, schedule: Q01DX009 (sc), vehicle: acid diluted with saline)?
A: 122 % of control

Q: And the T/C (dose: 0.39 mg/kg/injection, schedule: Q01DX009 (ip), vehicle: acid diluted with saline)?
A: 272 % of control

Q: And the T/C (dose: 0.39 mg/kg/injection, schedule: Q01DX009 (ip), vehicle: water)?
A: 245 % of control

Q: What about the T/C (dose: 0.5 mg/kg/injection, schedule: Q01DX005 (ip), vehicle: acid diluted with saline) of the same compound?
A: 270 % of control

Q: And the T/C (dose: 0.5 mg/kg/injection, schedule: Q01DX005 (iv), vehicle: acid diluted with saline)?
A: 99 % of control

Q: And the T/C (dose: 0.5 mg/kg/injection, schedule: Q01DX009 (ip), vehicle: other)?
A: 238 % of control and 333 % of control

Q: And the T/C (dose: 0.5 mg/kg/injection, schedule: Q04DX003 (ip), vehicle: saline)?
A: 179 % of control

Q: And the T/C (dose: 0.54 mg/kg/injection, schedule: Q01DX009 (ip), vehicle: acid diluted with saline)?
A: 234 % of control

Q: What about the T/C (dose: 0.54 mg/kg/injection, schedule: Q01DX009 (sc), vehicle: acid diluted with saline) of the same compound?
A: 153 % of control

Q: What about the T/C (dose: 0.75 mg/kg/injection, schedule: Q04DX002 (ip), vehicle: acid diluted with saline) of the same compound?
A: 209 % of control

Q: What about the T/C (dose: 0.75 mg/kg/injection, schedule: Q04DX003 (ip), vehicle: acid diluted with saline) of the same compound?
A: 123 % of control

Q: And the T/C (dose: 0.78 mg/kg/injection, schedule: Q01DX009 (ip), vehicle: water)?
A: 271 % of control

Q: And the T/C (dose: 0.78 mg/kg/injection, schedule: Q04DX003 (ip), vehicle: acid diluted with saline)?
A: 409 % of control

Q: What about the T/C (dose: 0.9 mg/kg/injection, schedule: Q01DX009 (ip), vehicle: acid diluted with saline) of the same compound?
A: 405 % of control

Q: And the T/C (dose: 0.9 mg/kg/injection, schedule: Q01DX009 (sc), vehicle: acid diluted with saline)?
A: 216 % of control

Q: What about the T/C (dose: 1.0 mg/kg/injection, schedule: Q01DX005 (ip), vehicle: acid diluted with saline) of the same compound?
A: 270 % of control

Q: And the T/C (dose: 1.0 mg/kg/injection, schedule: Q04DX003 (ip), vehicle: saline)?
A: 151 % of control and 188 % of control and 208 % of control

Q: What about the T/C (dose: 1.04 mg/kg/injection, schedule: Q04DX003 (ip), vehicle: acid diluted with saline) of the same compound?
A: 252 % of control

Q: What about the T/C (dose: 1.04 mg/kg/injection, schedule: Q04DX003 (iv), vehicle: acid diluted with saline) of the same compound?
A: 162 % of control

Q: And the T/C (dose: 1.08 mg/kg/injection, schedule: Q01DX009 (ip), vehicle: acid diluted with saline)?
A: 409 % of control

Q: What about the T/C (dose: 1.3 mg/kg/injection, schedule: Q04DX003 (ip), vehicle: acid diluted with saline) of the same compound?
A: 302 % of control

Q: What about the T/C (dose: 1.5 mg/kg/injection, schedule: Q01DX009 (ip), vehicle: acid diluted with saline) of the same compound?
A: 405 % of control

Q: What about the T/C (dose: 1.5 mg/kg/injection, schedule: Q01DX009 (sc), vehicle: acid diluted with saline) of the same compound?
A: 272 % of control

Q: What about the T/C (dose: 1.5 mg/kg/injection, schedule: Q04DX002 (ip), vehicle: acid diluted with saline) of the same compound?
A: 176 % of control and 201 % of control

Q: What about the T/C (dose: 1.56 mg/kg/injection, schedule: Q01DX009 (ip), vehicle: water) of the same compound?
A: 218 % of control

Q: What about the T/C (dose: 1.73 mg/kg/injection, schedule: Q04DX003 (ip), vehicle: acid diluted with saline) of the same compound?
A: 333 % of control

Q: What about the T/C (dose: 1.73 mg/kg/injection, schedule: Q04DX003 (iv), vehicle: acid diluted with saline) of the same compound?
A: 227 % of control

Q: And the T/C (dose: 1.8 mg/kg/injection, schedule: Q01DX009 (ip), vehicle: acid diluted with saline)?
A: 225 % of control

Q: And the T/C (dose: 2.0 mg/kg/injection, schedule: Q01DX009 (ip), vehicle: other)?
A: 207 % of control

Q: And the T/C (dose: 2.0 mg/kg/injection, schedule: Q04DX003 (ip), vehicle: saline)?
A: 164 % of control and 172 % of control and 207 % of control

Q: And the T/C (dose: 2.5 mg/kg/injection, schedule: Q01DX009 (ip), vehicle: acid diluted with saline)?
A: 180 % of control

Q: And the T/C (dose: 2.88 mg/kg/injection, schedule: Q04DX003 (ip), vehicle: acid diluted with saline)?
A: 333 % of control

Q: What about the T/C (dose: 3.0 mg/kg/injection, schedule: Q01DX001 (ip), vehicle: acid diluted with saline) of the same compound?
A: 333 % of control

Q: And the T/C (dose: 3.0 mg/kg/injection, schedule: Q01DX009 (ip), vehicle: acid diluted with saline)?
A: 102 % of control

Q: What about the T/C (dose: 3.0 mg/kg/injection, schedule: Q04DX002 (ip), vehicle: acid diluted with saline) of the same compound?
A: 260 % of control and 288 % of control

Q: And the T/C (dose: 3.24 mg/kg/injection, schedule: Q01DX001 (iv), vehicle: acid diluted with saline)?
A: 178 % of control

Q: What about the T/C (dose: 3.3 mg/kg/injection, schedule: Q01DX001 (ip), vehicle: acid diluted with saline) of the same compound?
A: 247 % of control

Q: What about the T/C (dose: 4.0 mg/kg/injection, schedule: Q01DX001 (ip), vehicle: acid diluted with saline) of the same compound?
A: 187 % of control

Q: And the T/C (dose: 4.0 mg/kg/injection, schedule: Q01DX001 (iv), vehicle: acid diluted with saline)?
A: 117 % of control

Q: And the T/C (dose: 4.0 mg/kg/injection, schedule: Q01DX009 (ip), vehicle: other)?
A: 99 % of control

Q: What about the T/C (dose: 4.0 mg/kg/injection, schedule: Q04DX003 (ip), vehicle: saline) of the same compound?
A: 166 % of control and 223 % of control and 233 % of control

Q: What about the T/C (dose: 4.4 mg/kg/injection, schedule: Q01DX001 (ip), vehicle: acid diluted with saline) of the same compound?
A: 229 % of control

Q: And the T/C (dose: 4.8 mg/kg/injection, schedule: Q04DX003 (ip), vehicle: acid diluted with saline)?
A: 180 % of control

Q: What about the T/C (dose: 5.0 mg/kg/injection, schedule: Q01DX001 (ip), vehicle: other) of the same compound?
A: 250 % of control

Q: What about the T/C (dose: 5.4 mg/kg/injection, schedule: Q01DX001 (ip), vehicle: acid diluted with saline) of the same compound?
A: 405 % of control

Q: What about the T/C (dose: 5.4 mg/kg/injection, schedule: Q01DX001 (iv), vehicle: acid diluted with saline) of the same compound?
A: 270 % of control

Q: And the T/C (dose: 6.0 mg/kg/injection, schedule: Q04DX002 (ip), vehicle: acid diluted with saline)?
A: 192 % of control and 260 % of control

Q: What about the T/C (dose: 6.7 mg/kg/injection, schedule: Q01DX001 (ip), vehicle: acid diluted with saline) of the same compound?
A: 293 % of control

Q: And the T/C (dose: 8.0 mg/kg/injection, schedule: Q01DX001 (ip), vehicle: acid diluted with saline)?
A: 171 % of control

Q: What about the T/C (dose: 8.0 mg/kg/injection, schedule: Q01DX001 (iv), vehicle: acid diluted with saline) of the same compound?
A: 198 % of control

Q: What about the T/C (dose: 8.0 mg/kg/injection, schedule: Q04DX003 (ip), vehicle: acid diluted with saline) of the same compound?
A: 107 % of control

Q: What about the T/C (dose: 8.0 mg/kg/injection, schedule: Q04DX003 (ip), vehicle: saline) of the same compound?
A: 164 % of control and 232 % of control

Q: What about the T/C (dose: 8.0 mg/kg/injection, schedule: Q04DX003 (iv), vehicle: acid diluted with saline) of the same compound?
A: 99 % of control

Q: And the T/C (dose: 9.0 mg/kg/injection, schedule: Q01DX001 (ip), vehicle: acid diluted with saline)?
A: 261 % of control

Q: What about the T/C (dose: 9.0 mg/kg/injection, schedule: Q01DX001 (iv), vehicle: acid diluted with saline) of the same compound?
A: 405 % of control

Q: What about the T/C (dose: 10.0 mg/kg/injection, schedule: Q04DX003 (ip), vehicle: acid diluted with saline) of the same compound?
A: 180 % of control

Q: And the T/C (dose: 12.0 mg/kg/injection, schedule: Q04DX002 (ip), vehicle: acid diluted with saline)?
A: 118 % of control

Q: What about the T/C (dose: 15.0 mg/kg/injection, schedule: Q01DX001 (ip), vehicle: other) of the same compound?
A: 302 % of control

Q: And the T/C (dose: 15.0 mg/kg/injection, schedule: Q01DX001 (iv), vehicle: acid diluted with saline)?
A: 405 % of control

Q: What about the T/C (dose: 16.0 mg/kg/injection, schedule: Q01DX001 (ip), vehicle: acid diluted with saline) of the same compound?
A: 173 % of control

Q: And the T/C (dose: 16.0 mg/kg/injection, schedule: Q01DX001 (iv), vehicle: acid diluted with saline)?
A: 101 % of control

Q: And the T/C (dose: 16.0 mg/kg/injection, schedule: Q04DX003 (ip), vehicle: saline)?
A: 101 % of control and 117 % of control

Q: What about the T/C (dose: 25.0 mg/kg/injection, schedule: Q01DX001 (ip), vehicle: acid diluted with saline) of the same compound?
A: 225 % of control

Q: What about the T/C (dose: 32.0 mg/kg/injection, schedule: Q01DX001 (ip), vehicle: acid diluted with saline) of the same compound?
A: 270 % of control

Q: And the T/C (dose: 32.0 mg/kg/injection, schedule: Q04DX003 (ip), vehicle: saline)?
A: 100 % of control

Q: What about the T/C (dose: 64.0 mg/kg/injection, schedule: Q01DX001 (ip), vehicle: acid diluted with saline) of the same compound?
A: 270 % of control

Q: And the T/C (dose: 7.0 micrograms/kg/injection, schedule: Q04DX003 (ip), vehicle: saline)?
A: 107 % of control

Q: And the T/C (dose: 15.0 micrograms/kg/injection, schedule: Q04DX003 (ip), vehicle: saline)?
A: 107 % of control

Q: And the T/C (dose: 31.0 micrograms/kg/injection, schedule: Q04DX003 (ip), vehicle: saline)?
A: 120 % of control
